Assay results reported in PMC4724314 (European journal of medicinal chemistry, 2015).
Where a name gives a salt, the structure may show the parent alone.

Assays:
IDO1 [1] = biological target: T1, IDO1 (Homo sapiens, UniProt P14902); assay: Recombinant human IDO1 enzyme inhibition assay; format: biochemical; conditions: for ligand efficiency: LE=1.37*pKi/number of heavy atoms; for mode of inhibition: Lineweaver-Burk graphical analysis
IDO1 [2] = biological target: T1, IDO1; assay: UV-Vis absorption spectroscopy of inhibitor binding to IDO1; conditions: 500 μM inhibitor; for effect of inhibitor on CO-bound ferrous IDO1: CO as surrogate for O2; for Soret band of deoxy ferrous IDO1 on inhibitor binding: without inhibitor 427 nm
human serum protein = assay: Impact of human serum protein binding on inhibitory activity; format: in vitro ADME
HeLa cells = assay: Cell viability; format: cell-based, human; conditions: up to concentrations of 100 μM
catalase = assay: Catalase inhibition; format: biochemical; conditions: catalase IC50 relative to IDO1 IC50
catalase, sequence (P00432 2-527): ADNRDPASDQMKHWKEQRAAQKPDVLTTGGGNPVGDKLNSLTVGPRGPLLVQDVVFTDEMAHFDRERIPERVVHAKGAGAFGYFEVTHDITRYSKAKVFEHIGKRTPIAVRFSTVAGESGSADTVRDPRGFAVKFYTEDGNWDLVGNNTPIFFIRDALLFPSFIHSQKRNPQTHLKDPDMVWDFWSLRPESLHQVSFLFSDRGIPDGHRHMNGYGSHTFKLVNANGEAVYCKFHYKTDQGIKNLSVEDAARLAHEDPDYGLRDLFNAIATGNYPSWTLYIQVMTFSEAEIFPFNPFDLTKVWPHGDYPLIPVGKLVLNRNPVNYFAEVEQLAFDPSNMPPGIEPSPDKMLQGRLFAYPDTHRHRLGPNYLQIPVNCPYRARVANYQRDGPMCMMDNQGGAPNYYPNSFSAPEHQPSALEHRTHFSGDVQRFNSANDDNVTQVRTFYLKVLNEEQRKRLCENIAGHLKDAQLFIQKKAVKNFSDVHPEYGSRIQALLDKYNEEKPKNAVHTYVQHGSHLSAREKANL

T1 sequence (P14902 whole entry): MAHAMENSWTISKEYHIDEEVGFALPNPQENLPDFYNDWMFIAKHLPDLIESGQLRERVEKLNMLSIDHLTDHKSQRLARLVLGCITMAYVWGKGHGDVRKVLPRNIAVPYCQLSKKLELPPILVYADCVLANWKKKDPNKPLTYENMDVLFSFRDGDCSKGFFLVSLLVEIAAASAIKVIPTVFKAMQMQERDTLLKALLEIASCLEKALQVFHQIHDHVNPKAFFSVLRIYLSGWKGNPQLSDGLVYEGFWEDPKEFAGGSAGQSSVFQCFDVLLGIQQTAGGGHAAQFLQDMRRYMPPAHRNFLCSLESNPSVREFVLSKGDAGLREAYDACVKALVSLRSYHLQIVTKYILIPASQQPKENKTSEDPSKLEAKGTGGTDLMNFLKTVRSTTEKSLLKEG

Row | Compound | IC50 (IDO1 [1]) | Soret band of deoxy ferrous IDO1 on inhibitor binding (IDO1 [2]) | effect of inhibitor on CO-bound ferrous IDO1 (IDO1 [2]) | impact of human serum protein binding on inhibitory activity (human serum protein) | reversibility of IDO1 inhibition (IDO1 [1]) | ligand efficiency (IDO1 [1]) | mode of inhibition (IDO1 [1]) | cell viability (cytotoxicity) (HeLa cells) | Catalase Fold (catalase)
1 | NOCCc1ccccc1 [Compound 5, O-Phenethylhydroxylamine hydrochloride] | 20 µM | – | – | – | – | – | – | – | –
2 | Cl.NOCc1cccc(Cl)c1 [Compound 9, O-(3-Chlorobenzyl)hydroxylamine hydrochloride] | – | – | – | relatively unaffected | reversible | 0.93 | uncompetitive | good cell viability | > 320 fold
3 | NOCc1ccccc1 [Lead, O-benzylhydroxylamine] | – | 419–421 nm | inhibitor binding prevents CO binding to the heme iron | – | – | – | – | – | –
4 | NNc1ccccc1 [Ph-NH-NH2, phenylhydrazine] | – | – | – | – | did not see any signs of irreversible inhibition | – | – | – | –

More lines, main results first:

Row | IC50 (IDO1 [1]) | Soret band of deoxy ferrous IDO1 on inhibitor binding (IDO1 [2]) | Compound | effect of inhibitor on CO-bound ferrous IDO1 (IDO1 [2]) | impact of human serum protein binding on inhibitory activity (human serum protein) | reversibility of IDO1 inhibition (IDO1 [1]) | ligand efficiency (IDO1 [1]) | mode of inhibition (IDO1 [1]) | cell viability (cytotoxicity) (HeLa cells) | Catalase Fold (catalase)
5 | – | 419–421 nm | Cl.NOCc1ccc(I)cc1 [Compound 8, 4-(Iodobenzyl)hydroxylamine hydrochloride] | inhibitor binding partially prevents CO binding to the heme iron | substantial reduction in inhibitory activity | reversible | 0.93 | uncompetitive | good cell viability | > 300 fold
6 | – | 419–421 nm | COc1ccc(OC)c(CON)c1.Cl [Compound 40, O-(2,5-Dimethoxybenzyl)hydroxylamine hydrochloride] | inhibitor binding partially prevents CO binding to the heme iron | – | – | – | – | – | –
